Measurements as given in patent publication US20060224077A1, “Analysis of a skin reactivity and hypersensitivity” (priority 2002, published 2006).

Test system: maxillary nerve (V2, sensory)
Experiment: Action potential of the maxillary nerve in response to electrical stimulation at face level, recorded non-invasively in vivo
Parameters: species or system human
Conditions: cream containing 0.75% capsaicin, 2 mg/cm^2 on a 2×4 mm skin zone immediately above the upper lip; 5 minutes after application; versus before application
Description: The process according to the invention which uses the electrogenesis of the nerves and/or the brain is characterized in that: • two non-invasive electrodes (1,1′) are applied, at least one of the two electrodes being applied to a specific point of the zone of the skin to be analyzed, the measuring point, in order to detect the electrical activity of the nerves of the skin and/or the subcutaneous nerves at that point or even the electrical activity of the brain. These electrodes are associated with a circuit for evaluating the signals detected by the electrodes, this evaluation circuit comprising amplifying elements (2, 2′, 3), processing elements (7) and recording elements for the signals and also a microprocessor (8), • the skin zone to be analyzed is exposed to a stimulation, more particularly an electrical stimulation, and • the changes in the electrical signals detected by the electrodes driven by the stimulation as a function of time are analyzed over a certain period. […]
FIG. 8 compares the variations in the action potential of the maxillary nerve (V2, sensory) in response to an electrical stimulation at face level before and immediately after the topical application of xylocaine (5%). […] A cream containing 0.75% capsaicin was used for this purpose and was applied in a quantity of 2 mg/cm^2 to a 2×4 mm skin zone immediately above the upper lip. […]

COc1cc(CNC(=O)CCCC/C=C/C(C)C)ccc1O [capsaicin]
increase of the amplitude of the nerve potential after application: 75%
